Legend:
NRK49F cells [1] = experiment: Collagen gel contraction assay; type: cell-based, rat; details: NRK49F in collagen gel, 10 ng/ml TGF-β1, 10 μM, 3 days, 8 hours after release
Method: (§1) FIG. 2A, FIG. 2B, FIG. 2C, FIG. 2D, FIG. 2E, FIG. 2F, FIG. 2G-1, and FIG. 2G-2 display how WRG-28 and Av suppress TGF-β1-induced fibroblasts activation and the differentiation of pericytes into myofibroblasts. […] Each bar represents the mean #SEM. […] The protein levels of collagen 1a1 and α-SMA were assessed using Western blot analysis under various conditions. […] Each bar represents mean±SEM. […] The images were acquired using a confocal microscope (Olympus, MPE). FIG. 2G-1 and FIG. 2G-2 display the measurement of angles between collagen fibers and the cell membrane, conducted using Image J. At least five different images from each condition were analyzed. Each bar represents mean±SEM. In all graphs, *, **, and *** represent p-value <0.05, 0.01, and 0.001, respectively. ‘ns’ denotes p-value >0.05, indicating no significant difference.
The collagen gel was made by mixing 3 ml rat tail collagen (Corning), 1 ml 5.7×DMEM, 500 μl 2.5% NaHCO3, 1 ml 0.1 M HEPES, 100 μl 0.17 M CaCl2, 100 μl 1 N NaOH, and 4.3 ml culture medium containing 2×10^6 NRK49F cells. 2 ml medium with or without 10 ng/ml TGF-β1 was applied onto gel in each well of 6 well-plate and cells were incubated for 3 days. After that gels were released from the culture plate and the gel area was quantified by Image J. […]

NRK49F cells [2] = experiment: TGF-β1-induced activation of renal fibroblasts (Western blot); type: cell-based, rat; details: 10 μM, 24 hours
Method: as §1, with “In all graphs, *, **, and *** represent p-value <0.05, 0.01, and 0.001, respectively. ‘ns’ denotes p-value >0.05, indicating no significant difference.” left out
(§2) Cell lysates were harvested in RIPA buffer (150 mM NaCl, 1 mM EGTA, 50 mM Tris pH 7.4, 10% glycerol, 1% Triton X-100, 1% sodium deoxycholate, 0.1% SDS, and protease inhibitor cocktail) and collected from culture dish with cell scrapers. […] The protein expression levels were assessed by specific primary antibodies, including antibodies against phosphotyrosine (clone 4G10; Millipore), DDR2 (R&D), α-SMA (Sigma), Collagen 1a1 (Boster), E-cadherin (BD Biosciences), SGLT2 (Proteintech), NHE1 (Novus) and β-actin (Clone C4, Millipore), followed by incubating with secondary antibodies conjugated with HRP and detected by ECL kit (Thermo Scientific). […]

[3] = system: THP-1 derived macrophages; experiment: Cytokine secretion in macrophages (ELISA); type: cell-based, human; details: IFN-γ/LPS induction, culture medium
[4] = system: human pulmonary fibroblast (MRC5); experiment: TGF-β1-induced activation of human pulmonary fibroblasts (Western blot); type: cell-based; details: MRC5, 10 μM co-treatment, 24 hours
Method: Cells were co-treated with various compounds (10 μM) and TGF-β1 for 24 hours. Following this, cell lysates were harvested, and the protein expression was assessed by Western blot analysis. FIG. 3D depicts the examination of TGF-β1-induced fibronectin deposition and α-SMA expression in HCF treated with 10 μM of DMSO, BTP2, WRG-28, or Av through immunofluorescence staining. The images were captured using a confocal microscope, the Olympus FV-1000. FIG. 3E, FIG. 3F, and FIG. 3G illustrate the assessment of CRAC channel activity in HCF, MRC5, and rat HSC-T6. These cells were pretreated with 10 μM of BTP2, WRG-28, or Av for 45 min. The evaluation included measuring the second peak of each calcium wave and the rate of entry. […]
as §2

CCL-226 cells = experiment: TGF-β1-induced pericyte-to-myofibroblast activation (Western blot); type: cell-based, mouse; details: CCL-226, 10 μM, 24 hours
Method: as §1, with “In all graphs, *, **, and *** represent p-value <0.05, 0.01, and 0.001, respectively. ‘ns’ denotes p-value >0.05, indicating no significant difference.” left out
as §2

SMILES	gel shrinkage (relative gel area) upon TGF-β1 stimulation (NRK49F cells [1])	TGF-β1-induced upregulation of collagen 1a1 and α-SMA (NRK49F cells [2])	secretion of IL-2 in macrophages [3]	secretion of IL-6 in macrophages [3]	secretion of TNF-β in macrophages [3]	upregulation of α-SMA induced by TGF-β1 [4]	TGF-β1-induced upregulation of collagen 1a1 and α-SMA in pericyte (CCL-226 cells)
CCNS(=O)(=O)c1ccc(COc2ccc3nc4ccc(=O)cc-4oc3c2)cc1 [WRG-28]	markedly reduced	significantly suppressed	significantly reduced	significantly reduced	significantly reduced	suppressed	significantly suppressed
Cc1nnsc1C(=O)Nc1ccc(-n2nc(C(F)(F)F)cc2C(F)(F)F)cc1 [BTP2]	markedly reduced	significantly suppressed	significantly reduced	significantly reduced	significantly reduced	suppressed	significantly suppressed

Source: US20250339443A1, “METHOD FOR TREATING OR PREVENTING CALCIUM RELEASE-ACTIVATED CALCIUM CHANNEL OR DISCOIDIN DOMAIN RECEPTOR 2 RELATED DISORDERS OR CONDITIONS” (LumiSTAR Biotechnology, Inc., priority 2023, published 2025)
